Drawing on PubChem BioAssay AID256 (DTP/NCI, 2004), this text covers T/C for 19 molecules.

The subject of this test is CD2F1 mice, L1210 leukemia ip, survival T/C. As to the kind of experiment: NCI In Vivo Anticancer Drug Screen. Data for tumor model L1210 Leukemia (intraperitoneal) in CD2F1 (CDF1) mice. Particulars: higher = longer survival. The essentials: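 Read-out first: treated-group measurement over vehicle-control measurement, expressed as a ratio. Animals bore a transplanted tumor line and were dosed with compound or vehicle.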

Where [1] appears, read: endpoint: mean survival time, dose: 100.0 mg/kg/injection, schedule: Q01DX009 (ip), vehicle: saline with Tween-80.
The mark [2] stands for this setting: endpoint: mean survival time, dose: 200.0 mg/kg/injection, schedule: Q01DX009 (ip), vehicle: saline with Tween-80.
The mark [3] stands for this setting: endpoint: mean survival time, dose: 100.0 mg/kg/injection, schedule: Q04DX002 (ip), vehicle: saline with Tween-80.
[4] abbreviates: endpoint: mean survival time, dose: 200.0 mg/kg/injection, schedule: Q04DX002 (ip), vehicle: saline with Tween-80.
The mark [5] stands for this setting: endpoint: mean survival time, dose: 400.0 mg/kg/injection, schedule: Q04DX002 (ip), vehicle: saline with Tween-80.
Where [6] appears, read: endpoint: mean survival time, dose: 12.5 mg/kg/injection, schedule: Q04DX003 (ip), vehicle: saline.
[7] abbreviates: endpoint: mean survival time, dose: 25.0 mg/kg/injection, schedule: Q04DX003 (ip), vehicle: saline.
[8] abbreviates: endpoint: mean survival time, dose: 100.0 mg/kg/injection, schedule: Q01DX001 (ip), vehicle: saline with Tween-80.
Setting [9] is: endpoint: mean survival time, dose: 200.0 mg/kg/injection, schedule: Q01DX001 (ip), vehicle: saline with Tween-80.
Where [10] appears, read: endpoint: mean survival time, dose: 400.0 mg/kg/injection, schedule: Q01DX001 (ip), vehicle: saline with Tween-80.
Setting [11] is: endpoint: mean survival time, dose: 400.0 mg/kg/injection, schedule: Q01DX009 (ip), vehicle: saline with Tween-80.

Several values for one entry are separate records, joined by “and”; a condition that tells them apart may be missing. Identical values can stand only once. Inconclusive results and toxic doses are left out.

`COc1ccc(C2=CCCCc3cc(O)c(OC)cc32)cc1`: the T/C reads like this: (endpoint: mean survival time, dose: 50.0 mg/kg/injection, schedule: Q01DX009 (ip), vehicle: saline with Tween-80) 100 % of control; under setting [1], 100 % of control; under setting [2], 100 % of control.

On to `N#CCCC#N` (tested in a mixture with another compound), for which the T/C (endpoint: mean survival time, dose: 50.0 mg/kg/injection, schedule: Q04DX002 (ip), vehicle: saline with Tween-80) is 96 % of control and 100 % of control; the T/C under setting [3] was 96 % of control and 107 % of control; the T/C under setting [4] was 100 % of control and 96 % of control; the T/C under setting [5] was 92 % of control and 100 % of control.

With `CCOC(OCC)c1cc(=O)[nH]c(NC(C)=O)n1`, the T/C is, setting by setting: (endpoint: mean survival time, dose: 100.0 mg/kg/injection, schedule: Q01DX001 (ip), vehicle: saline) 95 % of control; (endpoint: mean survival time, dose: 200.0 mg/kg/injection, schedule: Q01DX001 (ip), vehicle: saline) 103 % of control; (endpoint: mean survival time, dose: 400.0 mg/kg/injection, schedule: Q01DX001 (ip), vehicle: saline) 95 % of control.

For `O=c1[nH]cc(F)c(=O)[nH]1.[Tl]`, the T/C reads like this: (endpoint: mean survival time, dose: 1.5 mg/kg/injection, schedule: Q01DX009 (ip), vehicle: water) 106 % of control; (endpoint: mean survival time, dose: 3.1 mg/kg/injection, schedule: Q01DX009 (ip), vehicle: water) 112 % of control; (endpoint: mean survival time, dose: 6.25 mg/kg/injection, schedule: Q01DX009 (ip), vehicle: water) 124 % of control; (endpoint: mean survival time, dose: 12.5 mg/kg/injection, schedule: Q01DX009 (ip), vehicle: water) 91 % of control.

`c1ccc(OCCCNc2ccccn2)cc1`: the T/C is, setting by setting: (endpoint: mean survival time, dose: 25.0 mg/kg/injection, schedule: Q04DX003 (ip), vehicle: saline with Tween-80) 92 % of control; (endpoint: mean survival time, dose: 50.0 mg/kg/injection, schedule: Q04DX003 (ip), vehicle: saline with Tween-80) 103 % of control; (endpoint: mean survival time, dose: 100.0 mg/kg/injection, schedule: Q04DX003 (ip), vehicle: saline with Tween-80) 92 % of control and 97 % of control.

As to `CCCCCCC(C)Oc1ccc(Cl)cc1Cl` (stereo not drawn), the T/C by setting is: under setting [3], 90 % of control; under setting [4], 90 % of control; under setting [5], 101 % of control.

With `Cc1cc(O)cc(=O)o1`, the T/C (endpoint: mean survival time, dose: 200.0 mg/kg/injection, schedule: Q01DX001 (ip), vehicle: other) is 93 % of control and the T/C (endpoint: mean survival time, dose: 400.0 mg/kg/injection, schedule: Q01DX001 (ip), vehicle: other) was 105 % of control.

Turning to `C=C(N=[N+]=[N-])c1ccccc1`, the T/C is 110 % of control (endpoint: mean survival time, dose: 12.5 mg/kg/injection, schedule: Q01DX009 (ip), vehicle: other); 100 % of control (endpoint: mean survival time, dose: 25.0 mg/kg/injection, schedule: Q01DX009 (ip), vehicle: other); 100 % of control (endpoint: mean survival time, dose: 50.0 mg/kg/injection, schedule: Q01DX009 (ip), vehicle: other); 102 % of control (endpoint: mean survival time, dose: 100.0 mg/kg/injection, schedule: Q01DX009 (ip), vehicle: other).

Regarding `CCCCOC(=O)c1ccc2c(ccc[n+]2C)c1`, the T/C reads like this: (endpoint: mean survival time, dose: 37.5 mg/kg/injection, schedule: Q01DX009 (ip), vehicle: saline with Tween-80) 97 % of control; (endpoint: mean survival time, dose: 75.0 mg/kg/injection, schedule: Q01DX009 (ip), vehicle: saline with Tween-80) 103 % of control; (endpoint: mean survival time, dose: 150.0 mg/kg/injection, schedule: Q01DX009 (ip), vehicle: saline with Tween-80) 107 % of control.

Turning to `CC([NH-])C([NH-])O.O=[N+]([O-])O.O=[N+]([O-])O.[Pt+2]` (stereo not drawn), the T/C under setting [6] was 170 % of control and the T/C under setting [7] is 158 % of control.

Regarding `C=CCn1c(NCCN(CC)CC)nc2ccc(Cl)cc2c1=O`, the T/C is, setting by setting: (endpoint: mean survival time, dose: 12.5 mg/kg/injection, schedule: Q01DX009 (ip), vehicle: saline sonified) 105 % of control; under setting [6], 100 % of control; (endpoint: mean survival time, dose: 25.0 mg/kg/injection, schedule: Q01DX009 (ip), vehicle: saline sonified) 100 % of control; under setting [7], 100 % of control; (endpoint: mean survival time, dose: 50.0 mg/kg/injection, schedule: Q01DX009 (ip), vehicle: saline sonified) 103 % of control; (endpoint: mean survival time, dose: 50.0 mg/kg/injection, schedule: Q04DX003 (ip), vehicle: saline) 101 % of control.

Take `O=[N+]([O-])c1ccccc1-c1ccc(Cl)cc1`: the T/C under setting [8] was 88 % of control, the T/C under setting [9] is 91 % of control and the T/C under setting [10] was 92 % of control.

Take `NC1CCCCC1N.O=S(=O)([O-])CCCN1CCOCC1.O=S(=O)([O-])CCCN1CCOCC1.[Pt+4]`: the T/C runs as follows: (endpoint: median survival time, dose: 3.12 mg/kg/injection, schedule: Q04DX003 (ip), vehicle: saline with Tween-80) 361 % of control; (endpoint: median survival time, dose: 6.25 mg/kg/injection, schedule: Q04DX003 (ip), vehicle: saline with Tween-80) 174 % of control and 361 % of control; (endpoint: median survival time, dose: 12.5 mg/kg/injection, schedule: Q04DX003 (ip), vehicle: saline with Tween-80) 195 % of control and 196 % of control; (endpoint: median survival time, dose: 25.0 mg/kg/injection, schedule: Q04DX003 (ip), vehicle: saline with Tween-80) 341 % of control and 361 % of control; (endpoint: median survival time, dose: 50.0 mg/kg/injection, schedule: Q04DX003 (ip), vehicle: saline with Tween-80) 228 % of control and 365 % of control.

Regarding `Nc1nc(=O)n(CCCOc2cccc([N+](=O)[O-])c2)cc1-c1ccccc1`, the T/C runs as follows: under setting [8], 96 % of control; under setting [9], 87 % of control; under setting [10], 87 % of control.

In the case of `O=C(/C=C/c1ccccc1)c1cccc([N+](=O)[O-])c1`, the T/C was 91 % of control under setting [3], 91 % of control under setting [4] and 95 % of control under setting [5].

Turning to `O=C(Nc1ccc(F)cc1)Nc1ccc(Cl)cc1`, the T/C reads like this: under setting [1], 97 % of control; under setting [2], 100 % of control; under setting [11], 103 % of control.

Turning to `Nc1c(Cl)ncnc1NNC(=O)OCc1ccccc1`, the T/C (endpoint: mean survival time, dose: 100.0 mg/kg/injection, schedule: Q01DX001 (ip), vehicle: carboxymethylcellulose (CMC)) is 104 % of control; the T/C (endpoint: mean survival time, dose: 200.0 mg/kg/injection, schedule: Q01DX001 (ip), vehicle: carboxymethylcellulose (CMC)) is 98 % of control; the T/C (endpoint: mean survival time, dose: 400.0 mg/kg/injection, schedule: Q01DX001 (ip), vehicle: carboxymethylcellulose (CMC)) was 103 % of control.

Regarding `CC(NC=O)c1c[nH]c(=O)[nH]c1=O` (stereo not drawn), the T/C is 100 % of control under setting [1], 97 % of control under setting [2] and 97 % of control under setting [11].

Consider `COC1C(O)C(O)C(O)C(O)C1O` (stereo not drawn), for which the T/C is, setting by setting: (endpoint: mean survival time, dose: 100.0 mg/kg/injection, schedule: Q04DX003 (ip), vehicle: saline) 95 % of control; (endpoint: mean survival time, dose: 200.0 mg/kg/injection, schedule: Q04DX003 (ip), vehicle: saline) 92 % of control; (endpoint: mean survival time, dose: 400.0 mg/kg/injection, schedule: Q04DX003 (ip), vehicle: saline) 93 % of control.
